System: incretin hormone GIP
Experiment: In vivo incretin hormone GIP release, Total GIP ELISA on plasma
Parameters: species or system mouse
Settings: blood sample after 45 min, male 129SVE mice
Method: Male 129SVE mice (approximately 8-week old) were fasted for 18 h and randomly grouped (n=6) to receive a GPR119 agonist, (Compound 1), at an oral dose of 0.1, 0.3, 1, 3, 10, or 30 mpk (mg/kg body weight). Compounds were delivered orally via a gavage needle (p.o., volume 4 mL/kg), and after 45 min a blood sample was collected to determine plasma total GIP levels. A separate group received vehicle (PET: 80% PEG400, 10% ethanol, 10% Tween80) as control. Plasma GIP levels were determined using a Total GIP ELISA kit from Millipore.

## CN(C)C(=O)c1ccc(Nc2ncnc(N3CCC(c4nc(C(C)(C)F)no4)CC3)c2F)c(F)c1 [Compound 1, 3-fluoro-4-(5-fluoro-6-(4-(3-(2-fluoropropan-2-yl)-1,2,4-oxadiazol-5-yl)piperidin-1-yl)pyrimidin-4-ylamino)-N,N-dimethylbenzamide]
0.1 mg/kg p.o.
  Total Plasma GIP in Mice, Total GIP: 60.92 pg/mL
0.3 mg/kg p.o.
  Total Plasma GIP in Mice, Total GIP: 68.21 pg/mL
1 mg/kg p.o.
  Total Plasma GIP in Mice, Total GIP: 183.8 pg/mL
3 mg/kg p.o.
  Total Plasma GIP in Mice, Total GIP: 318.5 pg/mL
10 mg/kg p.o.
  Total Plasma GIP in Mice, Total GIP: 444.8 pg/mL
30 mg/kg p.o.
  Total Plasma GIP in Mice, Total GIP: 695.0 pg/mL
